Test results as given in patent publication US11858910B2, “Pyridinylmethylenepiperidine derivatives and uses thereof” (SUNSHINE LAKE PHARMA CO., LTD., priority 2018, dated 2024).
Read-outs that look alike come from different tables or passages of the source.

Tests used:
human 5-HT1F receptor = biological target: T1, human 5-HT1F receptor (Homo sapiens, UniProt P30939); test: Activating effect on human 5-HT1F receptor transfected CHO-K1 cells (HitHunter cAMP detection kit); assay type: cell-based
T1 construct: expressed in transfected cells; host or cells: CHO-K1
T1 sequence (P30939 1-366): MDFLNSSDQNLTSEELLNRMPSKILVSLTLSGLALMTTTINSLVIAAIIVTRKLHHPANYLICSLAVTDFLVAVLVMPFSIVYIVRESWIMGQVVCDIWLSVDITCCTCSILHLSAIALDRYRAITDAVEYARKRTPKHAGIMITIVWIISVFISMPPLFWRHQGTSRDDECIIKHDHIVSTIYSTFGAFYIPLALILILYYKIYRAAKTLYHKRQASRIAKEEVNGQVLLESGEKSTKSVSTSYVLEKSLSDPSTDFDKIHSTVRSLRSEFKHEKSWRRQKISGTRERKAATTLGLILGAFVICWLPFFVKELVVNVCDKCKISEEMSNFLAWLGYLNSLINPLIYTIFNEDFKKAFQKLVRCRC
Protocol: Experimental purposes: To evaluate the activating effect of the compound on CHO-K1 cells transfected human 5-HT1F receptor by using HitHunter cAMP detection kit.
Experimental brief process: CHO-K1 cells were cultured in a 384 microporous plate. The volume of cell culture medium (Assay Complete™ Cell Plating Reagent, DIscoverX) was 20 μL and the cell density was 10,000/well. The cells were cultured overnight at 37° C. and 5% CO2. Then the culture medium was removed, and 15 μL of cAMP Assay Buffer (DIscoverX) was added into each well, and then 5 μL of test sample containing 4× sample (test compound or 5-HT) and 4× forskolin (final concentration of forskolin is 15 μM) was added. The microporous plate was placed at 37° C. for 30 minutes. Then 5 μL of cAMP Antibody Reagent (DiscoverX) and 20 μL of cAMP Working Detection Solution (DiscoverX) were added and incubated in the dark for 1 hour, and then 20 μL of cAMP Solution A was added and incubated in the dark for 3 hours. The microporous plate was placed in the Perkin Elmer Envision™ to read the intensity of the optical signal. The activation rate was calculated by the intensity of the optical signal obtained from testing the compounds with different concentrations ((1−(Y/Z))*100%=the activation rate, wherein, Y represents the intensity of the optical signal adding test sample, and Z represents the intensity of the optical signal adding only forskolin). The dose-effect curve of the compounds was calculated by Prism software, and the concentration of the agonist with half maximum response was calculated and expressed by EC50 value. The results were shown in Table A. 5-HT was used as a positive control drug to ensure the normal experimental system in this experiment.

[1] = Pharmacokinetic evaluation after intravenous or gavage administration to rats; assay type: in vivo, SD rats
Protocol: (§1) The inventors had evaluated the pharmacokinetics of the compounds of the invention in rats and dogs. Wherein animal information was detailed in Table 1.
(§2) The compound was administered to the animal subjects in the form of 5% DMSO+60% PEG400+35% Saline solution or 10% DMSO+10% Kolliphor HS15+30% PEG400+50% Saline solution. The animals were fasted for 12 hours before administration, but drinking water freely. For the group of intravenous administration, the administration dose is 0.5 mg/kg or 1 mg/kg, and vein blood samples (0.15 mL) were collected at the time points of 0.083, 0.25, 0.5, 1.0, 2.0, 4.0, 6.0, 8.0 and 24 h (dogs) or 0.083, 0.25, 0.5, 1.0, 2.0, 5.0, 7.0 and 24 h (rats) after drug administration. EDTA-K2 as anticoagulant was pre-added into the blood vessel. The plasma solutions were collected by centrifuging each blood sample at 12,000 rpm for 2 minutes and kept at −20° C. or −70° C. For the group of gavage administration, the administration dose is 2.5 mg/kg or 5 mg/kg, and vein blood samples (0.15 mL) were collected at the time points of 0.25, 0.5, 1.0, 2.0, 4.0, 6.0, 8.0 and 24 h (dogs) or 0.25, 0.5, 1.0, 2.0, 5.0, 7.0 and 24 h (rats) after drug administration. EDTA-K2 as anticoagulant was pre-added into the blood vessel. The plasma solutions were collected by centrifuging each blood sample at 12,000 rpm for 2 minutes and kept at −20° C. or −70° C.
(§3) After processing the above plasma sample (the frozen plasma was melted at room temperature and then whirled for 15 seconds. 10 to 20 μL of the plasma was taken out, and whirled with 120 to 150 μL of an acetonitrile solution containing an internal standard for 5 minutes. The mixture was centrifuged for 5 minutes at 4,000 rpm. 100 μL of the supernatant was taken out and mixed with 120 to 150 μL of methanol-water (v/v=1/1)), the concentration of compounds in plasma was analyzed by LC-MS/MS. […] The compound of the invention has better drug properties and better clinical application prospects. Wherein the pharmacokinetic parameters of examples 12 and 19 in rats were detailed in Table B1; the pharmacokinetic parameters of examples 12 and 19 in dogs were detailed in Table B2.

[2] = Pharmacokinetic evaluation after intravenous or gavage administration to dogs; assay type: in vivo, Beagle dogs
Protocol: as §1, §2, §3

[3] = CHO-K1 cells, forskolin 15 μM, cAMP, read-out: EC50
[4] = Beagle, dog, in vivo, iv, 0.5 mg/kg
[5] = beagle, dog, in vivo, po, 2.5 mg/kg

In the case of CN1CCC(=Cc2cccc(NC(=O)c3c(F)cc(F)cc3F)n2)CC1 [Example 5, 2,4,6-trifluoro-N-(6-((1-methylpiperidin-4-ylidene)methyl)pyridine-2-yl)benzamide], the EC50 (human 5-HT1F receptor; [3]) is reported as 1.9 nM.

For CN1CCC(=C(F)c2cccc(NC(=O)c3ccc(F)cc3F)n2)CC1 [Example 10, 2,4-difluoro-N-(6-(fluoro(1-methylpiperidin-4-ylidene)methyl)pyridine-2-yl)benzamide], the EC50 (human 5-HT1F receptor; [3]) was 3 nM.

CN1CCC(=Cc2cccc(NC(=O)c3ccc(F)cc3F)n2)CC1 [Example 3, 2,4-difluoro-N-(6-((1-methylpiperidin-4-ylidene)methyl)pyridine-2-yl)benzamide] showed an EC50 (human 5-HT1F receptor; [3]) of 5.9 nM.

Molecule CCN1CCC(=C(F)c2cccc(NC(=O)c3c(F)cc(F)cc3F)n2)CC1 [Example 19, 2,4,6-trifluoro-N-(6-(fluoro(1-ethylpiperidin-4-ylidene)methyl)pyridin-2-yl)benzamide] has an EC50 (human 5-HT1F receptor; [3]) of 6.8 nM, an F ([1]; SD, rat, in vivo, 5 mg/kg) of 105% and an AUC(0-inf) ([1]; SD, rat, in vivo, iv, 1 mg/kg) of 259 ng·h/mL. The AUC(0-t) ([1]; SD, rat, in vivo, iv, 1 mg/kg) was 240 ng·h/mL, the Cmax ([1]; SD, rat, in vivo, iv, 1 mg/kg) was 67.7 ng/mL and the MRT inf ([1]; SD, rat, in vivo, iv, 1 mg/kg) was 2.95 h. The Tmax ([1]; SD, rat, in vivo, iv, 1 mg/kg) was 0.5 h, the Vd ([1]; SD, rat, in vivo, iv, 1 mg/kg) was 11.4 L/kg and the clearance ([1]; SD, rat, in vivo, iv, 1 mg/kg) was 64.4 mL/min/kg. The half-life ([1]; SD, rat, in vivo, iv, 1 mg/kg) was 2.1 h, the AUC(0-inf) ([1]; SD, rat, in vivo, po, 5 mg/kg) was 1320 ng·h/mL and the AUC(0-t) ([1]; SD, rat, in vivo, po, 5 mg/kg) was 1260 ng·h/mL. It also gave a Cmax ([1]; SD, rat, in vivo, po, 5 mg/kg) of 169 ng/mL, an MRT inf ([1]; SD, rat, in vivo, po, 5 mg/kg) of 5.01 h and a Tmax ([1]; SD, rat, in vivo, po, 5 mg/kg) of 3.67 h. It also gave a half-life ([1]; SD, rat, in vivo, po, 5 mg/kg) of 3.06 h, an F ([2]; Beagle, dog, in vivo, 2.5 mg/kg) of 12.4% and an AUC(0-inf) [2, 4] of 634 ng·h/mL. For the same molecule, the AUC(0-t) [2, 4] was 632 ng·h/mL, the Cmax [2, 4] was 442 ng/mL and the MRT inf [2, 4] was 1.39 h. It also gave a Tmax [2, 4] of 0.083 h, a Vd [2, 4] of 1.1 L/kg and a clearance [2, 4] of 13.1 mL/min/kg. The half-life [2, 4] was 1.06 h, the AUC(0-inf) [2, 5] was 392 ng·h/mL and the AUC(0-t) [2, 5] was 356 ng·h/mL. The Cmax [2, 5] was 126 ng/mL, the MRT inf [2, 5] was 3.26 h and the Tmax [2, 5] was 1 h. The half-life [2, 5] was 1.96 h.

CN1CCC(=C(F)c2cccc(NC(=O)c3c(F)cc(F)cc3F)n2)CC1 [Example 12, 2,4,6-trifluoro-N-(6-(fluoro(1-methylpiperidin-4-ylidene)methyl)pyridine-2-yl)benzamide] showed an EC50 (human 5-HT1F receptor) of 1.5 nM, an AUC(0-inf) ([1]; SD, rat, plasma, iv, rats, i.v group, 1 mg/kg, read-out: AUCINF) of 114 ng·h/mL and an AUC(0-t) ([1]; SD, rat, plasma, iv, rats, i.v group, 1 mg/kg, read-out: AUClast) of 111 ng·h/mL. For the same molecule, the clearance ([1]; SD, rat, plasma, iv, rats, i.v group, 1 mg/kg, read-out: Cl) was 146 mL/min/kg, the Cmax ([1]; SD, rat, plasma, iv, rats, i.v group, 1 mg/kg, read-out: Cmax) was 80.5 ng/mL and the MRT inf ([1]; SD, rat, plasma, iv, rats, i.v group, 1 mg/kg, read-out: MRTINF) was 1.66 h. For the same molecule, the half-life ([1]; SD, rat, plasma, iv, rats, i.v group, 1 mg/kg, read-out: T1/2 (converted)) was 1.38 h, the Tmax ([1]; SD, rat, plasma, iv, rats, i.v group, 1 mg/kg, read-out: Tmax) was 0.083 h and the Vd ([1]; SD, rat, plasma, iv, rats, i.v group, 1 mg/kg, read-out: Vss) was 14.6 L/kg. It also gave an AUC(0-inf) ([1]; SD, rat, plasma, po, rats, i.g group, 5 mg/kg, read-out: AUCINF) of 354 ng·h/mL, an AUC(0-t) ([1]; SD, rat, plasma, po, rats, i.g group, 5 mg/kg, read-out: AUClast) of 296 ng·h/mL and a Cmax ([1]; SD, rat, plasma, po, rats, i.g group, 5 mg/kg, read-out: Cmax) of 71.8 ng/mL. The MRT inf ([1]; SD, rat, plasma, po, rats, i.g group, 5 mg/kg, read-out: MRTINF) was 4.05 h, the half-life ([1]; SD, rat, plasma, po, rats, i.g group, 5 mg/kg, read-out: T1/2 (converted)) was 2.31 h and the Tmax ([1]; SD, rat, plasma, po, rats, i.g group, 5 mg/kg, read-out: Tmax) was 2 h. For the same molecule, the F ([1]; rats, i.g group, 5 mg/kg) was 62%, the AUC(0-inf) ([2]; Beagle, dog, plasma, iv, dogs, i.v group, 1 mg/kg, read-out: AUCINF) was 660 ng·h/mL and the AUC(0-t) ([2]; Beagle, dog, plasma, iv, dogs, i.v group, 1 mg/kg, read-out: AUClast) was 652 ng·h/mL. For the same molecule, the clearance ([2]; Beagle, dog, plasma, iv, dogs, i.v group, 1 mg/kg, read-out: Cl) was 25.2 mL/min/kg, the Cmax ([2]; Beagle, dog, plasma, iv, dogs, i.v group, 1 mg/kg, read-out: Cmax) was 170 ng/mL and the MRT inf ([2]; Beagle, dog, plasma, iv, dogs, i.v group, 1 mg/kg, read-out: MRTINF) was 4.11 h. It also gave a half-life ([2]; Beagle, dog, plasma, iv, dogs, i.v group, 1 mg/kg, read-out: T1/2 (converted)) of 3.52 h, a Tmax ([2]; Beagle, dog, plasma, iv, dogs, i.v group, 1 mg/kg, read-out: Tmax) of 0.25 h and a Vd ([2]; Beagle, dog, plasma, iv, dogs, i.v group, 1 mg/kg, read-out: Vss) of 6.22 L/kg. For the same molecule, the AUC(0-inf) ([2]; Beagle, dog, plasma, po, dogs, i.g group, 5 mg/kg, read-out: AUCINF) was 705 ng·h/mL, the AUC(0-t) ([2]; Beagle, dog, plasma, po, dogs, i.g group, 5 mg/kg, read-out: AUClast) was 691 ng·h/mL and the Cmax ([2]; Beagle, dog, plasma, po, dogs, i.g group, 5 mg/kg, read-out: Cmax) was 82.8 ng/mL. It also gave an MRT inf ([2]; Beagle, dog, plasma, po, dogs, i.g group, 5 mg/kg, read-out: MRTINF) of 5.98 h, a half-life ([2]; Beagle, dog, plasma, po, dogs, i.g group, 5 mg/kg, read-out: T1/2 (converted)) of 4.28 h and a Tmax ([2]; Beagle, dog, plasma, po, dogs, i.g group, 5 mg/kg, read-out: Tmax) of 1.67 h. For the same molecule, the F ([2]; dogs, i.g group, 5 mg/kg) was 21.4%.
